Source: patent US6869589B1, “Cryptate compounds and methods for diagnosis and therapy” (Australian Nuclear Science & Technology Organization, priority 1999, dated 2005)

Test: Biodistribution of ^64Cu complexes in balb/c mice
Description: The biodistribution of the ^64Cu complexes of compounds (1), (3) and (4) (0.10 ml intravenous injection) were evaluated in balb/c mice (5 animals per time point) at 3, 5, 10, 15, 20 and 30 minute time intervals. Biodistribution studies were performed in duplicate.

Nc1ccc(CNC23CNCCNCC(N)(CNCCNC2)CNCCNC3)cc1.[64Cu+2] [^64Cu-labelled compound (3)]
% injected dose per gram (BLADDER, 3 MIN): 11.36 % INJECTED DOSE PER GRAM | % injected dose per gram (BLADDER, 5 MIN): 12.31 % INJECTED DOSE PER GRAM | % injected dose per gram (BLADDER, 10 MIN): 14.36 % INJECTED DOSE PER GRAM | % injected dose per gram (BLADDER, 15 MIN): 10.54 % INJECTED DOSE PER GRAM | % injected dose per gram (BLADDER, 20 MIN): 13.45 % INJECTED DOSE PER GRAM | % injected dose per gram (BLADDER, 30 MIN): 2.74 % INJECTED DOSE PER GRAM | % injected dose per gram (BLOOD, 3 MIN): 7.74 % INJECTED DOSE PER GRAM | % injected dose per gram (BLOOD, 5 MIN): 8.19 % INJECTED DOSE PER GRAM | % injected dose per gram (BLOOD, 10 MIN): 5.23 % INJECTED DOSE PER GRAM | % injected dose per gram (BLOOD, 15 MIN): 4.39 % INJECTED DOSE PER GRAM | % injected dose per gram (BLOOD, 20 MIN): 3.05 % INJECTED DOSE PER GRAM | % injected dose per gram (BLOOD, 30 MIN): 1.25 % INJECTED DOSE PER GRAM | % injected dose per gram (BONE, 3 MIN): 1.68 % INJECTED DOSE PER GRAM | % injected dose per gram (BONE, 5 MIN): 2.11 % INJECTED DOSE PER GRAM | % injected dose per gram (BONE, 10 MIN): 1.29 % INJECTED DOSE PER GRAM | % injected dose per gram (BONE, 15 MIN): 1.36 % INJECTED DOSE PER GRAM | % injected dose per gram (BONE, 20 MIN): 1.11 % INJECTED DOSE PER GRAM | % injected dose per gram (BONE, 30 MIN): 0.72 % INJECTED DOSE PER GRAM | % injected dose per gram (GIT, 3 MIN): 2.66 % INJECTED DOSE PER GRAM | % injected dose per gram (GIT, 5 MIN): 2.88 % INJECTED DOSE PER GRAM | % injected dose per gram (GIT, 10 MIN): 1.80 % INJECTED DOSE PER GRAM | % injected dose per gram (GIT, 15 MIN): 2.92 % INJECTED DOSE PER GRAM | % injected dose per gram (GIT, 20 MIN): 1.05 % INJECTED DOSE PER GRAM | % injected dose per gram (GIT, 30 MIN): 0.55 % INJECTED DOSE PER GRAM | % injected dose per gram (HEART, 3 MIN): 2.79 % INJECTED DOSE PER GRAM | % injected dose per gram (HEART, 5 MIN): 3.00 % INJECTED DOSE PER GRAM | % injected dose per gram (HEART, 10 MIN): 2.03 % INJECTED DOSE PER GRAM | % injected dose per gram (HEART, 15 MIN): 1.56 % INJECTED DOSE PER GRAM | % injected dose per gram (HEART, 20 MIN): 1.24 % INJECTED DOSE PER GRAM | % injected dose per gram (HEART, 30 MIN): 0.50 % INJECTED DOSE PER GRAM | % injected dose per gram (KIDNEY, 3 MIN): 22.41 % INJECTED DOSE PER GRAM | % injected dose per gram (KIDNEY, 5 MIN): 18.99 % INJECTED DOSE PER GRAM | % injected dose per gram (KIDNEY, 10 MIN): 13.41 % INJECTED DOSE PER GRAM | % injected dose per gram (KIDNEY, 15 MIN): 10.26 % INJECTED DOSE PER GRAM | % injected dose per gram (KIDNEY, 20 MIN): 9.98 % INJECTED DOSE PER GRAM | % injected dose per gram (KIDNEY, 30 MIN): 5.95 % INJECTED DOSE PER GRAM | % injected dose per gram (LIVER, 3 MIN): 1.94 % INJECTED DOSE PER GRAM | % injected dose per gram (LIVER, 5 MIN): 2.00 % INJECTED DOSE PER GRAM | % injected dose per gram (LIVER, 10 MIN): 1.46 % INJECTED DOSE PER GRAM | % injected dose per gram (LIVER, 15 MIN): 1.24 % INJECTED DOSE PER GRAM | % injected dose per gram (LIVER, 20 MIN): 1.04 % INJECTED DOSE PER GRAM | % injected dose per gram (LIVER, 30 MIN): 0.72 % INJECTED DOSE PER GRAM | % injected dose per gram (LUNGS, 3 MIN): 5.48 % INJECTED DOSE PER GRAM | % injected dose per gram (LUNGS, 5 MIN): 5.74 % INJECTED DOSE PER GRAM | % injected dose per gram (LUNGS, 10 MIN): 4.00 % INJECTED DOSE PER GRAM | % injected dose per gram (LUNGS, 15 MIN): 3.25 % INJECTED DOSE PER GRAM | % injected dose per gram (LUNGS, 20 MIN): 2.59 % INJECTED DOSE PER GRAM | % injected dose per gram (LUNGS, 30 MIN): 1.13 % INJECTED DOSE PER GRAM | % injected dose per gram (MUSCLE, 3 MIN): 1.98 % INJECTED DOSE PER GRAM | % injected dose per gram (MUSCLE, 5 MIN): 3.17 % INJECTED DOSE PER GRAM | % injected dose per gram (MUSCLE, 10 MIN): 1.73 % INJECTED DOSE PER GRAM | % injected dose per gram (MUSCLE, 15 MIN): 2.40 % INJECTED DOSE PER GRAM | % injected dose per gram (MUSCLE, 20 MIN): 2.13 % INJECTED DOSE PER GRAM | % injected dose per gram (MUSCLE, 30 MIN): 0.50 % INJECTED DOSE PER GRAM | % injected dose per gram (SKIN, 3 MIN): 5.63 % INJECTED DOSE PER GRAM | % injected dose per gram (SKIN, 5 MIN): 6.18 % INJECTED DOSE PER GRAM | % injected dose per gram (SKIN, 10 MIN): 4.86 % INJECTED DOSE PER GRAM | % injected dose per gram (SKIN, 15 MIN): 4.49 % INJECTED DOSE PER GRAM | % injected dose per gram (SKIN, 20 MIN): 3.41 % INJECTED DOSE PER GRAM | % injected dose per gram (SKIN, 30 MIN): 1.45 % INJECTED DOSE PER GRAM | % injected dose per gram (SPLEEN, 3 MIN): 1.96 % INJECTED DOSE PER GRAM | % injected dose per gram (SPLEEN, 5 MIN): 2.01 % INJECTED DOSE PER GRAM | % injected dose per gram (SPLEEN, 10 MIN): 1.26 % INJECTED DOSE PER GRAM | % injected dose per gram (SPLEEN, 15 MIN): 1.09 % INJECTED DOSE PER GRAM | % injected dose per gram (SPLEEN, 20 MIN): 0.93 % INJECTED DOSE PER GRAM | % injected dose per gram (SPLEEN, 30 MIN): 0.39 % INJECTED DOSE PER GRAM | % injected dose per gram (STOMACH, 3 MIN): 2.69 % INJECTED DOSE PER GRAM | % injected dose per gram (STOMACH, 5 MIN): 3.11 % INJECTED DOSE PER GRAM | % injected dose per gram (STOMACH, 10 MIN): 2.35 % INJECTED DOSE PER GRAM | % injected dose per gram (STOMACH, 15 MIN): 1.91 % INJECTED DOSE PER GRAM | % injected dose per gram (STOMACH, 20 MIN): 1.54 % INJECTED DOSE PER GRAM | % injected dose per gram (STOMACH, 30 MIN): 0.60 % INJECTED DOSE PER GRAM
